According to patent US20060178387A1, “Combined treatment with capecitabine and an epidermal growth factor receptor kinase inhibitor” (priority 2005, published 2006):

Tests used:
[1] = test system: KPL-4 (human inflammatory breast cancer) cells; experiment: Tumor-growth inhibition in vivo, KPL-4 orthotopic xenograft in BALB/c nu/nu mice
Text: (§1) Suspensions of LoVo (5×10^6 cells/mouse), HT-29 (5 x 10^6 cells/mouse) and A431 (8×10^6 cells/mouse) cells were inoculated s.c. into the right flank of the mice. A piece of MAXF401 was transplanted s.c. into the right flank of female mice. A suspension of KPL-4 cells (1×10^7 cells/mouse) was orthotopically transplanted into the second mammary fat pad of female mice. Several weeks after tumor inoculation, mice were selected and randomized into control and treatment groups. Experiments were started when tumor volumes reached approximately 0.1-0.3 cm^3. […] The tumor volumes were estimated using the equation V=ab^2/2, where a and b are tumor length and width, respectively. Gastrointestinal (GI) toxicity was estimated by observing the feces and by detecting fecal occult blood using a test kit (Shionogi Pharma Co., Osaka, Japan). Peripheral blood leukocyte counts were performed to evaluate bone marrow toxicity.

[2] = test system: LoVo (human colon cancer) cells; experiment: Tumor-growth inhibition in vivo, LoVo xenograft in BALB/c nu/nu mice; conditions: for tumor-growth inhibition: LoVo; for tumor inhibition rate: day 15, after 14 days' treatment
Text: as §1

[3] = test system: HT-29 (human colon cancer) cells; experiment: Tumor-growth inhibition in vivo, HT-29 xenograft in BALB/c nu/nu mice; conditions: erlotinib 100 mg/kg/day orally once daily for two weeks, day 15
Text: as §1

[4] = test system: MAXF401 (human breast cancer) cells; experiment: Tumor-growth inhibition in vivo, MAXF401 xenograft in BALB/c nu/nu mice; conditions: erlotinib 100 mg/kg/day orally once daily for two weeks, day 15
Text: as §1

[5] = test system: A-431 (human vulval epidermal cancer) cells; experiment: Tumor-growth inhibition in vivo, A-431 xenograft in BALB/c nu/nu mice; conditions: erlotinib 100 mg/kg/day (80% of MTD) orally once daily for 14 days
Text: as §1

[6] = Tolerability (body weight, deaths, MTD) in tumor-bearing mice; assay type: in vivo, BALB/c nu/nu mice; conditions: for lethality: erlotinib 250 mg/kg/day; for toxic deaths: erlotinib 50-125 mg/kg/day for 2 weeks
Text: Male and female, 4-6-weeks old BALB/c nu/nu mice were obtained from Nippon Clea (Tokyo, Japan). All animals were allowed to acclimatize and recover from shipping-related stress for 1 week prior to the study. The health of the mice was monitored daily by observation.

[7] = erlotinib 100 mg/kg/day (80% of MTD) orally once daily for 14 days, day 15
[8] = erlotinib 100 mg/kg/day (80% of MTD) orally once daily for 14 days, day 15, listed as erlotinib

Compound `CCCCCOC(=O)Nc1nc(=O)n([C@@H]2O[C@H](C)[C@@H](O)[C@H]2O)cc1F` [Capecitabine, capecitabine] has a tumor-growth inhibition ([1]; capecitabine 90 mg/kg (67% of MTD for this model) orally once daily for 14 days, day 15) of 36% and a tumor-growth inhibition ([2]; capecitabine at the MTD, 539 mg/kg) of 56%.
`C#Cc1cccc(Nc2ncnc3cc(OCCOC)c(OCCOC)cc23)c1` [Erlotinib, [6,7-bis(2-methoxyethoxy)-4-quinazolin-4-yl]-(3-ethynylphenyl)amine] gave a tumor-growth inhibition [3] of 46%, a tumor-growth inhibition [1, 7] of 71% and a tumor-growth inhibition [1, 8] of 71%. The “inhibition of tumor growth” value ([1]; single-agent erlotinib 75 mg/kg (data not shown)) was 45%, the tumor-growth inhibition [4] was 20% and the tumor-growth inhibition ([5]; day 15) was 85%. For the same compound, the tumor-growth inhibition ([5]; day 15, listed as erlotinib) was 85%, the MTD at 2 weeks ([6]; BALB/c nu/nu, mouse, in vivo, oral, read-out: maximum tolerated dose (MTD)) was 125 mg/kg/day and the lethality ([6]; mice bearing A431 tumors (data not shown)) was “lethal”. For the same compound, the lethality ([6]; mice bearing LoVo tumors (data not shown)) was “lethal”, the toxic deaths ([6]; mice bearing LoVo tumors) was “no deaths recorded” and the toxic deaths ([6]; mice bearing LoVo tumors, listed as erlotinib) was “No toxic deaths were observed”. The “mean body weight maintained” value ([6]; mice bearing LoVo tumors, erlotinib 50-125 mg/kg/day, all groups) was ≥ 80%, the antitumor activity ([2]; LoVo dose-response study, erlotinib 50 mg/kg orally once daily for 2 weeks) was “did not show significant antitumor activity” and the tumor inhibition rate ([2]; LoVo dose-response study, erlotinib 100 mg/kg orally once daily) was 62%. The tumor inhibition rate ([2]; LoVo dose-response study, erlotinib 125 mg/kg orally once daily) was 85%, the tumor-growth inhibition [2, 7] was 74% and the tumor-growth inhibition [2, 8] was 74%.
